Results: ChEMBL document CHEMBL5247679, “Novel Quinoline Compounds as KRAS Inhibitors for Treating Cancer” (ACS Med Chem Lett, 2023)

Experiments:
GTPase KRas [1] = target: GTPase KRas (Homo sapiens, UniProt P01116, G12D); assay: Inhibition of KRAS G12D mutant (unknown origin) preincubated for 4 hrs followed by SOS1 addition and measured after 2 hrs by fluorescence based analysis
GTPase KRas [2] = target: GTPase KRas (Homo sapiens, UniProt P01116, G12V); assay: Inhibition of KRAS G12V mutant (unknown origin) preincubated for 4 hrs followed by SOS1 addition and measured after 3 hrs by fluorescence based analysis
Chain of GTPase KRas (Homo sapiens, UniProt P01116, G12V) (P01116 whole entry G12V): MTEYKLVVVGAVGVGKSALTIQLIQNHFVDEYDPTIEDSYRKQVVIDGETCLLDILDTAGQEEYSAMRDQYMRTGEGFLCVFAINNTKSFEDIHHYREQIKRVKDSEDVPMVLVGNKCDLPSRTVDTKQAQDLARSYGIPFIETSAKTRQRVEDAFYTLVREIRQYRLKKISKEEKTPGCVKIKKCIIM

Chain of GTPase KRas (Homo sapiens, UniProt P01116, G12D) (P01116 whole entry G12D): as the sequence (P01116 whole entry G12V) above, with V12D counted along it

SMILES	IC50 (GTPase KRas [1]) [µM]	IC50 (GTPase KRas [2]) [µM]
Cc1nc2c(F)c(-c3cccc(Cl)c3Cl)c(CCC#N)cc2c2c1cc([C@@H](C)NS(=O)(=O)C1CC1)n2[C@H]1[C@H]2CN[C@@H]1C2	≤ 0.1	≤ 0.1
Cc1nc2c(F)c(-c3cccc(Cl)c3Cl)c(CCC#N)cc2c2c1cc([C@@H](C)NC(=O)c1cscn1)n2[C@H]1[C@H]2CN[C@@H]1C2	≤ 0.1	≤ 0.1
Cc1nc2c(F)c(-c3cccc(Cl)c3Cl)c(CCC#N)cc2c2c1cc([C@@H](C)NC(=O)c1ccncn1)n2[C@H]1[C@H]2CN[C@@H]1C2	≤ 0.1	≤ 0.1
CN(C)C1(C)CN(c2nc3c(F)c(-c4cccc5ccc(F)cc45)c(CCC#N)cc3c3c2cc(CN2CCOCC2=O)n3[C@@H]2[C@@H]3CN[C@H]2C3)C1	≤ 0.1	≤ 0.1
Cc1cc2c(-n3cncn3)nc3c(F)c(-c4cc(O)cc5ccc(Cl)cc45)c(CCC#N)cc3c2n1[C@H]1[C@H]2CN[C@@H]1C2	≤ 0.1	≤ 0.1
C[C@H](Oc1nc2c(F)c(-c3csc4ccccc34)c(CCC#N)cc2c2c1cc(CN1CCCC1=O)n2[C@H]1[C@H]2CN[C@@H]1C2)[C@@H]1CCCN1C	≤ 0.1	≤ 0.1
